{
  "source": "paper PMC5063900",
  "about": "“A phase 1 study of the safety, tolerability, pharmacokinetics, and pharmacodynamics of TAK-063, a selective PDE10A inhibitor” (Psychopharmacology, 2016)",
  "experiment": "Food effect on pharmacokinetics, 100 mg fed vs fasting",
  "format": "in vivo, human",
  "experimental": "Healthy Japanese and non-Japanese subjects between 18 and 55 years of age were recruited to participate in the study. Criteria for exclusion included prior treatment with any investigational compound within 30 days of the first TAK-063 dose, a positive test for drugs of abuse or nicotine, and an increased risk for suicide. Subjects were randomized into 1 of 6 dose cohorts (3, 10, 30, 100, 300, and 1000 mg), with each cohort containing 11 TAK-063 subjects (five Japanese, six non-Japanese) and three placebo subjects (one Japanese, two non-Japanese) receiving a single dose under fasting conditions. […] Plasma concentrations of TAK-063 and its metabolite M-I were subsequently measured by validated liquid chromatography-tandem mass spectrometry with a validated range of 0.5 to 1000 ng/mL for both analytes. The PK parameters analyzed for TAK-063 and its metabolite M-I in plasma and urine included area under the plasma concentration-time curve from time 0 to infinity (AUC (0-inf)), maximum observed plasma concentration (C max), time to reach C max (T max), terminal elimination half-life (T 1/2), oral clearance (CL/F), volume of distribution (Vz/F), and renal clearance (CLr). […] A power model was used to evaluate dose proportionality by race for fasted subjects; in the event of no observed race effect, dose proportionality was assessed for all subjects. […]",
  "data": [
    {"molecule": "COc1cn(-c2ccc(-n3cccn3)cc2F)nc(-c2ccnn2-c2ccccc2)c1=O", "note": "[TAK-063]", "values": [
      {"measurement": "Median T max", "setting": "fed (standard meal)", "value": 6, "unit": "h"},
      {"measurement": "Oral bioavailability, fed relative to fasting", "setting": "standard meal", "value": "approximately 2 fold"}
    ]}
  ]
}
